Laboratory results reported in paper PMC4594923, “Food Polyphenols Fail to Cause a Biologically Relevant Reduction of COX-2 Activity” (PLoS ONE, 2015).
Marks after values point to notes of the source that are not given here.

How the values were obtained:
[1] = test system: arachidonic acid (AA) cascade; test: plasma oxylipin/PG levels in LPS induced sepsis in mice; format: in vivo, C57BL/6N mice; details: plasma 24 h after LPS treatment; LPS +; mean;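 further: male C57BL/6N mice given LPS, plasma oxylipins quantified by LC-MS after solid-phase extraction, pretreatment or vehicle given intraperitoneally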
Source text: (§1) Twelve week old male C57BL/6N mice (Charles River, Sulzfeld, Germany) were used for all experiments. C57BL/6 male mice (H2^b, 11–13 weeks of age) were obtained from Charles River (Sulzfeld, Germany). Animals were cared for in accordance with the institution’s guidelines for experimental animals and with the guidelines of the American Physiological Society. […] Mice were monitored closely and if they appeared compromised (i.e. inactivity, no intake of food or water) after compound or LPS injection the experiment was terminated.
(§2) Oxylipin levels were analyzed in plasma and tissues by LC-MS following SPE extraction of 200 μl plasma or tissue homogenate (50 mg) on Chromabond C18 ec cartridges (Machery-Nagel, Düren, Germany) [19].
(§3) GraphPad Prism 5.0 (GraphPad Software, San Diego, USA) was used for data analysis, the fitting of dose response curves and calculation of the IC50 values. Statistical differences were determined by Dunnetts test (LPS vs. other groups).

[2] = test system: arachidonic acid (AA) cascade; test: liver tissue oxylipin/PG levels in LPS induced sepsis in mice; format: in vivo, C57BL/6N mice; details: liver tissue 24 h after LPS treatment;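 further: male C57BL/6N mice pretreated i.p. with polyphenols at 100 mg/kg bw or vehicle before LPS, liver oxylipins measured by LC-MS after solid-phase extraction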
Source text: as §1, §2, §3

SMILES: O=c1c(-c2ccc(O)cc2)coc2cc(O)cc(O)c12 [Genistein, genistein]
- 1a,1b-dihomo-PGF2α concentration in plasma [1]: 0.33 nM
- 4,5-DiHDPE concentration in plasma [1]: 10 nM
- 4-HDHA concentration in plasma [1]: 2.0 nM
- 5(6)-EpETrE concentration in plasma [1]: 8.9 nM
- 5,6-DiHETrE concentration in plasma [1]: 0.72 nM
- 5-HEPE concentration in plasma [1]: 0.33 nM
- 5-HETE concentration in plasma [1]: 3.1 nM
- 5-iPF2α concentration in plasma [1]: < 0.50 nM
- 5-oxo-ETE concentration in plasma [1]: 1.2 nM
- 6-keto-PGF1α concentration in plasma [1]: 2.4 nM
- 7,8-DiHDPE concentration in plasma [1]: 1.1 nM
- 7-HDHA concentration in plasma [1]: 0.64 nM
- 8(9)-EpETrE concentration in plasma [1]: 2.3 nM
- 8,9-DiHETrE concentration in plasma [1]: 2.1 nM
- 8-HDHA concentration in plasma [1]: 4.0 nM
- 8-HEPE concentration in plasma [1]: 0.72 nM
- 8-HETE concentration in plasma [1]: 9.6 nM
- 8-iPF2a concentration in plasma [1]: 0.24 nM
- 9(10)-EpODE concentration in plasma [1]: 3.5 nM
- 9(10)-EpOME concentration in plasma [1]: 37 nM
- 9(10)-Epoxystearic acid concentration in plasma [1]: 31 nM
- 9,10,13-TriHOME concentration in plasma [1]: 1.5 nM
- 9,10-DiHODE concentration in plasma [1]: 4.8 nM
- 9,10-DiHOME concentration in plasma [1]: 63 nM
- 9,10-Dihydroxystearic acid concentration in plasma [1]: 15 nM
- 9,12,13-TriHOME concentration in plasma [1]: 9.6 nM
- 9-HODE concentration in plasma [1]: 96 nM
- 9-HOTrE concentration in plasma [1]: 4.1 nM
- 9-oxo-ODE concentration in plasma [1]: 16 nM
- 10(11)-EpDPE concentration in plasma [1]: 3.0 nM
- 10,11-DiHDPE concentration in plasma [1]: 0.90 nM
- 10-HDHA concentration in plasma [1]: 16 nM
- 11(12)-EpETrE concentration in plasma [1]: 2.7 nM
- 11,12-DiHETE concentration in plasma [1]: 0.19 nM
- 11,12-DiHETrE concentration in plasma [1]: 1.9 nM
- 11-HDHA concentration in plasma [1]: 1.2 nM
- 11-HETE concentration in plasma [1]: 2.7 nM
- 12(13)-EpODE concentration in plasma [1]: 1.8 nM
- 12(13)-EpOME concentration in plasma [1]: 34 nM
- 12,13-DiHODE concentration in plasma [1]: 4.7 nM
- 12,13-DiHOME concentration in plasma [1]: 214 nM
- 12-HEPE concentration in plasma [1]: 140 nM
- 12-HETE concentration in plasma [1]: 1200 nM
- 13(14)-EpDPE concentration in plasma [1]: 2.0 nM
- 13,14-DiHDPE concentration in plasma [1]: 0.96 nM
- 13,14-dihydro-15-keto-PGE1 concentration in plasma [1]: 0.18 nM
- 13,14dihydro-15-keto-PGF2α concentration in plasma [1]: 0.43 nM
- 13-HDHA concentration in plasma [1]: 2.8 nM
- 13-HODE concentration in plasma [1]: 240 nM
- 13-HOTrE concentration in plasma [1]: 15 nM
- 13-oxo-ODE concentration in plasma [1]: 2.7 nM
- 14(15)-EpETE concentration in plasma [1]: 0.21 nM
- 14(15)-EpETrE concentration in plasma [1]: 2.0 nM
- 14,15-DiHETE concentration in plasma [1]: 0.41 nM
- 14,15-DiHETrE concentration in plasma [1]: 4.3 nM
- 14-HDHA concentration in plasma [1]: 450 nM
- 15(16)-EpODE concentration in plasma [1]: 2.0 nM
- 15(S)-HETrE concentration in plasma [1]: 2.7 nM
- 15,16-DiHODE concentration in plasma [1]: 40 nM
- 15-HEPE concentration in plasma [1]: 0.96 nM
- 15-HETE concentration in plasma [1]: 5.1 nM
- 15-oxo-ETE concentration in plasma [1]: 0.42 nM
- 16(17)-EpDPE concentration in plasma [1]: 2.1 nM
- 16,17-DiHDPE concentration in plasma [1]: 2.2 nM
- 16-HDHA concentration in plasma [1]: 1.9 nM
- 17(18)-EpETE concentration in plasma [1]: 1.2 nM
- 17,18-DiHETE concentration in plasma [1]: 2.3 nM
- 17-HDHA concentration in plasma [1]: 21 nM
- 18-HEPE concentration in plasma [1]: 0.45 nM
- 19(20)-EpDPE concentration in plasma [1]: 14 nM
- 19,20-DiHDPE concentration in plasma [1]: 19 nM
- 20-HDHA concentration in plasma [1]: 3.7 nM
- 20-HEPE concentration in plasma [1]: 2.8 nM
- 20-HETE concentration in plasma [1]: 1.7 nM
- EKODE concentration in plasma [1]: 9.9 nM
- PGD2 concentration in plasma [1]: < 0.50 nM
- PGE2 concentration in plasma [1]: 0.95 nM
- PGF1α concentration in plasma [1]: 0.13 nM
- PGF2α concentration in plasma [1]: 0.44 nM
- TXB2 concentration in plasma [1]: 2.6 nM
- 4,5-DiHDPE concentration ([2]; mean): 64 nM
- 4-HDHA concentration ([2]; mean): 14 nM
- 5(6)-EpETrE concentration ([2]; mean): 90 nM
- 5,6-DiHETE concentration ([2]; mean): < 0.30 nM
- 5,6-DiHETrE concentration ([2]; mean): 6.3 nM
- 5-HEPE concentration ([2]; mean): 2.7 nM
- 5-HETE concentration ([2]; mean): 2.7 nM
- 5-iPF2α concentration ([2]; mean): < 1.0 nM
- 5-oxo-ETE concentration ([2]; mean): 19 nM
- 6-keto-PGF1α concentration ([2]; mean): 74 nM
- 7,8-DiHDPE concentration ([2]; mean): 6.3 nM
- 7-HDHA concentration ([2]; mean): 4.4 nM
- 8(9)-EpETE concentration ([2]; mean): 2.5 nM
- 8(9)-EpETrE concentration ([2]; mean): 20 nM
- 8,9-DiHETE concentration ([2]; mean): 2.6 nM
- 8,9-DiHETrE concentration ([2]; mean): 12 nM
- 8,15-DiHETE concentration ([2]; mean): 0.88 nM
- 8-HDHA concentration ([2]; mean): 25^* nM
- 8-HEPE concentration ([2]; mean): 1.2 nM
- 8-HETE concentration ([2]; mean): 10 nM
- 8-iPF2α concentration ([2]; mean): 3.0^* nM
- 9(10)-EpODE concentration ([2]; mean): 12 nM
- 9(10)-EpOME concentration ([2]; mean): 130 nM
- 9(10)-Epoxystearic acid concentration ([2]; mean): 82 nM
- 9,10,13-TriHOME concentration ([2]; mean): 8.6^* nM
- 9,10-DiHODE concentration ([2]; mean): 7.6 nM
- 9,10-DiHOME concentration ([2]; mean): 82 nM
- 9,10-Dihydroxystearic acid concentration ([2]; mean): 64 nM
- 9,12,13-TriHOME concentration ([2]; mean): 64 nM
- 9-HETE concentration ([2]; mean): 6.2 nM
- 9-HODE concentration ([2]; mean): 550 nM
- 9-HOTrE concentration ([2]; mean): 9.9 nM
- 9-oxo-ODE concentration ([2]; mean): 160 nM
- 10(11)-EpDPE concentration ([2]; mean): 33^* nM
- 10,11-DiHDPE concentration ([2]; mean): 11 nM
- 10-HDHA concentration ([2]; mean): 7.6 nM
- 11(12)-EpETE concentration ([2]; mean): 5.1^† nM
- 11(12)-EpETrE concentration ([2]; mean): 51 nM
- 11,12-DiHETE concentration ([2]; mean): 2.9 nM
- 11,12-DiHETrE concentration ([2]; mean): 22 nM
- 11-HDHA concentration ([2]; mean): 7.0 nM
- 11-HETE concentration ([2]; mean): 35 nM
- 12(13)-EpODE concentration ([2]; mean): 5.7 nM
- 12(13)-EpOME concentration ([2]; mean): 110 nM
- 12,13-DiHODE concentration ([2]; mean): 5.7 nM
- 12,13-DiHOME concentration ([2]; mean): 210 nM
- 12-HEPE concentration ([2]; mean): 39 nM
- 12-HETE concentration ([2]; mean): 150 nM
- 13(14)-EpDPE concentration ([2]; mean): 27^* nM
- 13,14-DiHDPE concentration ([2]; mean): 15 nM
- 13,14-dihydro-15-keto-PGE1 concentration ([2]; mean): 0.61 nM
- 13,14-dihydro-15-keto-PGF2α concentration ([2]; mean): 8.2^* nM
- 13-HDHA concentration ([2]; mean): 16^† nM
- 13-HODE concentration ([2]; mean): 530 nM
- 13-HOTrE concentration ([2]; mean): 18 nM
- 13-oxo-ODE concentration ([2]; mean): 20 nM
- 14(15)-EpETE concentration ([2]; mean): 3.3 nM
- 14(15)-EpETrE concentration ([2]; mean): 44^* nM
- 14,15-DiHETE concentration ([2]; mean): 8.6 nM
- 14,15-DiHETrE concentration ([2]; mean): 62 nM
- 14-HDHA concentration ([2]; mean): 97 nM
- 15(16)-EpODE concentration ([2]; mean): 27 nM
- 15(S)-HETrE concentration ([2]; mean): 14 nM
- 15,16-DiHODE concentration ([2]; mean): 63 nM
- 15-HEPE concentration ([2]; mean): 4.0 nM
- 15-HETE concentration ([2]; mean): 40 nM
- 15-oxo-ETE concentration ([2]; mean): 5.8 nM
- 16(17)-EpDPE concentration ([2]; mean): 27^* nM
- 16,17-DiHDPE concentration ([2]; mean): 35 nM
- 16-HDHA concentration ([2]; mean): 8.1^* nM
- 17(18)-EpETE concentration ([2]; mean): 4.6 nM
- 17,18-DiHETE concentration ([2]; mean): 19 nM
- 17-HDHA concentration ([2]; mean): 25 nM
- 18-HEPE concentration ([2]; mean): 4.6 nM
- 19(20)-EpDPE concentration ([2]; mean): 40^* nM
- 19,20-DiHDPE concentration ([2]; mean): 170 nM
- 20-HDHA concentration ([2]; mean): 27^* nM
- 20-HEPE concentration ([2]; mean): 22 nM
- 20-HETE concentration ([2]; mean): 6.3 nM
- EKODE concentration ([2]; mean): 40 nM
- PGD1 concentration ([2]; mean): 2.3 nM
- PGD2 concentration ([2]; mean): 42 nM
- PGE1 concentration ([2]; mean): 3.7 nM
- PGE2 concentration ([2]; mean): 21 nM
- PGF1α concentration ([2]; mean): 6.9 nM
- TXB2 concentration ([2]; mean): 31 nM
- TxB3 concentration ([2]; mean): 1.2 nM
- dihomo-PGF2α concentration ([2]; mean): 5.3 nM
- PGF2α concentration ([2]; mean (first listing, r6)): 57 nM
- PGF2α concentration ([2]; mean (second listing, r9)): 57 nM
